Assay results: a melting point compilation (Tetko et al.; mined from patent text by program, amines drawn as free bases though some values may be those of a salt)

Point of comparison: `c1ccc(COc2ccc(-c3ccc(OCCCN4CCCCC4)cc3)nn2)cc1`, melting point 138 °C. Against it:
- COc1ccc(-c2cc(=O)n(C)c(=O)n2CC(O)CNC(C)(C)C)cc1OC (stereo not drawn) — lower, 123 to 125 °C
- CCc1cccc2c3c([nH]c12)C(CC)(CC(O)O)OCC3 (stereo not drawn) — higher, 158 to 159 °C
- COC(=O)c1cnoc1-c1ccc(Cl)cc1Cl — lower, 83 to 84 °C
- CNS(=O)(=O)c1cc(C(C)(C)C)cc(CNC(C)=O)c1O — higher, 173 to 174 °C
- CC1Cc2cc3c(cc2C(c2ccc([N+](=O)[O-])cc2)=NN1C(=O)CBr)OCO3 (stereo not drawn) — higher, 183 to 186 °C
- O=C(O)Cc1c(C(=O)c2ccc(Cl)cc2)[nH]c2cc(Cl)c(F)cc12 — higher, 215 to 220 °C
- CC(C)(Oc1ccc(Cl)cc1Cl)C(=O)C(Cc1ccc(Cl)cc1)n1cncn1 (stereo not drawn) — lower, 104 to 108 °C
- N#CCCOC(=O)C=C1C=C(c2ccccc2)S(=O)(=O)C(c2ccccc2)=C1 — higher, 156 to 157 °C
- CC1(C)OC(=O)COC1=O — lower, 82 to 83 °C
- CC(C)(C)c1cc(CNc2cccc(Br)c2CO)c(C(=O)O)s1 — lower, 68 to 69 °C
- COc1ccc2sc(=O)[nH]c2c1 — higher, 168 to 170 °C
- CCOC(=O)c1nn(-c2cccc(Cl)c2)c(=O)c2c1c1ccc(Cl)cc1n2C — higher, 236 to 238 °C
- COc1ccc(Cn2c3c(c4cc(OC)c(OC)cc4c2=O)C(=O)c2cc4c(cc2-3)OCO4)cc1 — higher, 360 to 364 °C
- CCc1noc(-c2ncn(-c3cccc(O)c3)c2COC)n1 — lower, 98 to 99 °C
- CCNC(=O)c1c(Cl)cccc1[Si](C)(C)CC — lower, 94 to 95 °C
- O=C1NN=C(c2cccc([N+](=O)[O-])c2)C2CC12 (stereo not drawn) — higher, 220 to 221 °C
- CC1(OCC(F)(F)F)C=NC(c2cc(-c3ccc(S(C)(=O)=O)cc3)c(N3CCOCC3)s2)=CC1 (stereo not drawn) — higher, 156 °C
- CC(C)c1cccc(C(C)C)c1NC(=O)N(C(C)C)C1COc2ccccc2C1 (stereo not drawn) — higher, 169 to 172 °C
- CCc1nc(-c2cccc(C#N)c2)c(-c2ccnc(N)c2)s1 — higher, 178 to 179 °C
- Cc1oc(COc2ccc(/C=C/C=O)cc2)nc1-c1ccccc1 — higher, 144 to 146 °C
- CC(C)(C)C(=O)OCOC(=O)C(C)(C)n1nc2ccc(NCCCN3CCC(OC(c4ccccc4)c4ccccc4)CC3)nn2c1=O — higher, 162 °C
- CS(=O)(=O)c1ccc(-c2cnn(-c3ccc(C(=O)n4cccc4)cc3)c(=O)c2-c2ccc(F)cc2)cc1 — higher, 229 to 231 °C
- CCOC(=O)/C=C/c1ccc(-c2ccc(O)c(C34CC5CC(CC(C5)C3)C4)c2)c(C)c1 — higher, 193 to 195 °C
- CCNc1nc(=S)n(Cc2ccc(OC)c(OC3CCCC3)c2)c2nc(C(C)C)[nH]c12 — lower, 72 to 77 °C
- CNC(=O)C(C)Oc1ncn(-c2ccc(C(F)(F)F)cc2)n1 (stereo not drawn) — higher, 157 to 158 °C
- O=C(NCc1cccc(-c2nc(=O)c3ccccc3s2)n1)c1ccccc1 — higher, 214 to 215 °C
- CCc1c(C(=O)C(N)=O)c2c(OCC(=O)NOC(C)(C)C)cccc2n1Cc1ccccc1 — higher, 203 to 205 °C
- O=C(Nc1ccc[nH]c1=O)c1ccccc1F — higher, 223 °C
- O=C1NC(=O)C(Cc2ccc(OCc3cccc(-c4ccccc4)c3)cc2)S1 (stereo not drawn) — lower, 109 to 111 °C
- CC1Nc2ccccc2N(Cc2ccccc2)C(=O)C1C/C=C/c1ccccc1 (stereo not drawn) — lower, 119 to 120 °C
- CC1(C)CC(NC(=O)CCC(=O)NC2CC(C)(C)N(OC3CCCCC3)C(C)(C)C2)CC(C)(C)N1OC1CCCCC1 — higher, 230 to 234 °C
- O=C(O)CC(CC(=O)O)Sc1nc2ccccc2s1 — higher, 153 to 154 °C
- CCOC(=O)c1ncc2[nH]c3cccc(COC)c3c2c1C — lower, 133 to 135 °C
- CC(C)Cc1nc2sc3c(NCc4cccnc4)ncnc3c2c2c1COC(C)(C)C2 — higher, 244 to 245 °C
- NC(=O)c1ncoc1-c1cccc(O)c1 — higher, 202 to 204 °C
- CC(=O)Nc1nc(NCC(O)CO)c(Cl)nc1[N+](=O)[O-] (stereo not drawn) — lower, 130 to 131 °C
- CCCc1nc2c(N)nc3ccccc3c2n1CCCCN(OC)S(C)(=O)=O — higher, 178 to 188 °C
- CCCCCCCCCCCCCCC(=O)C(=O)NC(C=CC(=O)O)CCCC (stereo not drawn) — lower, 65 to 67 °C
- CC(C(=O)O)c1ccc(Sc2nccs2)cc1 (stereo not drawn) — lower, 85 to 87 °C
- CC(C)(C)C(=O)C(=CC(=O)c1ccc(Cl)cc1)n1cncn1 — higher, 140 °C
- Cc1cc(Cl)n2nc(S(=O)(=O)Nc3c(Cl)cccc3Cl)nc2n1 — higher, 217 to 220 °C
- COc1ccccc1C(Nc1cc(Cl)c(Cl)cc1Cl)C(=O)O (stereo not drawn) — higher, 188 °C
- COC(=O)C(N)Cc1ccc(OCc2nc3ccc(OC)cc3n2C)cc1 (stereo not drawn) — lower, 108 to 111 °C
- N=C(Cc1nc2cnc3ccc(Cl)cc3c2n1-c1ccccc1Cl)NO — lower, 114 °C
- CCSc1nc2ccc(N)cc2s1 — lower, 77 to 78 °C
- O=C(O)CCCCCCCc1cncc2ccccc12 — lower, 99 to 100 °C
- CN(C)C(=O)CCc1ccc2c(c1)nc(N)c1nc(CO)n(CC(C)(C)O)c12 — higher, 228 to 230 °C
- O=C(O)[C@@H]1CCCN1C(=O)C1CCC1S (stereo partly drawn) — higher, 145 to 146 °C
- CCCNC(=O)N(C)Cc1cccc2c1C(=O)N(C1CCC(=O)NC1=O)C2=O (stereo not drawn) — higher, 210 to 212 °C
- c1nnc2c3c(c(NCCCN4CCCC4)nn12)CCCC3 — higher, 169 to 171 °C
- COc1ccc(C(=O)Oc2ccc(O)cc2)cc1 — higher, 162 to 165 °C
- Cc1c(NC(=O)c2ccc(-c3ccccc3F)cc2F)ccc2cc(CN3CCCC3)cnc12 — higher, 159 to 160 °C
- C[C@H](NC(=O)c1c(F)cccc1[N+](=O)[O-])C(=O)O — higher, 142 to 144 °C
- CCOC(=O)c1cnn2c(-c3ccc(C)c(C)c3)ccnc12 — higher, 187 to 188 °C
- CC#CCOc1cc(OCc2cccc(F)c2F)ncn1 — lower, 84.9 °C
- CCOC(=O)C=Cc1cccc(C(=O)c2ccc(OC)cc2)c1 — lower, 71 to 71.5 °C
- CNC(=S)n1ncnc1N — higher, 184 to 185 °C
- CCSc1nc2c(C(=O)OC)sc(C)c2[nH]1 — higher, 159 to 160 °C
- CCCCN(c1c([O-])[c+](N(CCCC)C2CC(C)(C)NC(C)(C)C2)[c+]1[O-])C1CC(C)(C)NC(C)(C)C1 — higher, 151 to 152 °C
- CCOC(=O)c1ccc2cc(Oc3cccc([N+](=O)[O-])c3)ccn2c1=O — higher, 161 to 163 °C
- Cc1nn(-c2cc(Oc3ccc([N+](=O)[O-])cc3)c(Cl)cc2F)c(=O)n1C(F)F — lower, 115 to 117 °C
- O=C(O)c1cc2c(-c3cccs3)nccc2[nH]c1=O — higher, 278 °C
- N#CSc1cc(-c2ccccc2)c(O)c(-c2ccccc2)c1 — lower, 104 to 106 °C
- COc1cc(C(C)C)cc(OC)c1-c1nc(N)sc1CCC1CCCCC1 — higher, 143 °C
- Nc1ccc(-c2nc3n(c2-c2ccc(N)cc2)CCS3)cc1 — higher, 205 to 206 °C
- Cc1ccc(OCC(=O)O)c(I)n1 — higher, 170 to 172 °C
- Nc1nc(N)c2ncn(COCCO)c2n1 — higher, 183 to 184 °C
- COC(=O)c1cnc(N)c(N)c1 — higher, 154 to 155 °C
- CC(=O)Nc1ccc(CNC(=O)c2ccccc2)cc1 — higher, 175 to 177 °C
- CC(C)(C)c1cc(Nc2ccc(C(=O)O)cc2)cc(C(C)(C)C)c1O — higher, 241 to 243 °C
- COc1ccc([C@H](O)[C@@H](Cc2ccc(C(F)(F)F)cc2)NC(=O)c2ccc(F)c3ccccc23)cc1 (racemic) — higher, 184 to 185 °C
- NC1=C(NC=O)C(=O)N2CCN=C2N1 — higher, 268 °C
- O=C(O)CCNS(=O)(=O)c1ccc(N2CCC(c3ccccc3)CC2)cc1 — higher, 145 to 147 °C
- CC(C)(C)c1ccc(S(=O)(=O)N2c3ccccc3C[C@H]2C(=O)Cl)cc1 — higher, 148 °C
- CC(Oc1ccc(COc2ccc(Cl)cc2Cl)cc1)C(=O)O (stereo not drawn) — lower, 122 to 123 °C
- COc1ccc(C(=O)c2cccc(CC(=O)O)c2N)cc1 — lower, 117 to 118 °C
- CN1CCN(C(=O)COc2cccc(CCNS(=O)(=O)c3ccc(Cl)cc3)c2)CC1 — higher, 139 to 141 °C
- O=C1C=C(NC(=O)C(=O)c2cn(Cc3cccc(Cl)c3)c3ccccc23)CO1 — higher, 268 to 270 °C
- CCN(CC1CCN(C(=O)NC)CC1)C(C)Cc1ccc(OC)cc1 (stereo not drawn) — lower, 97 to 98 °C
- Cc1cc(C(F)(F)F)nn1CC(=O)N1CCC(c2nc(C3=NOC(c4ccccc4Cl)C3)cs2)CC1 (stereo not drawn) — lower, 115 to 122 °C
- CNC1C(O)CC2C3CCC4CC(O)CCC4(C)C3CCC21C (stereo not drawn) — higher, 241 to 253 °C
- COCc1cc(C(=O)CBr)on1 — lower, 53 to 54 °C
- CN1CC(CO)C(c2ccccc2)(c2ccccc2)C1=O (stereo not drawn) — higher, 148 to 150 °C
- Cc1cnc(NC(=O)C2c3ccccc3Oc3ccccc32)o1 — higher, 217 to 220 °C
- O=Cc1ccn(-c2cc3[nH]c(=O)c(=O)[nH]c3cc2[N+](=O)[O-])c1 — higher, > 250 °C
- CC(C)Cc1ccc(CCc2cc3c(s2)NC(=S)C(C)N=C3c2ccccc2Cl)cc1 (stereo not drawn) — higher, 188 to 191 °C
- CC(=O)SCC(Cc1ccccc1)C(=O)Nc1ccc(C(N)=O)cc1 (stereo not drawn) — higher, 195 to 197 °C
- COc1ccccc1[C@H](C)C(=O)N1C[C@@H]2[C@H](C1)C(c1ccccc1)(c1ccccc1)C[C@H](O)[C@@]2(O)c1ccccc1OC — higher, 178 to 180 °C
- CCOC(=NC(=O)c1ccc(Cl)cc1)N1Cc2ccccc2-c2ccccc2C1 — lower, 106 to 107 °C
- NNc1ccc(-c2cccc(Cl)c2)nn1 — higher, 173 to 174 °C
- O=C(Nc1ccncc1)OC1CN2CCC1CC2 (stereo not drawn) — higher, 149 to 151 °C
- c1ccc(C(OC2CCNCC2)c2ccccc2)cc1 — lower, 56 °C
- CC(C)n1nc(-c2sc(NC(=O)COc3ccccc3)nc2-c2ccccc2)ccc1=O — higher, 243 to 244 °C
- CC1(c2c[nH]cn2)CCCCC1 — lower, 73 to 75 °C
- FC(F)(F)c1cc(CBr)c(C(F)(F)F)cc1CBr — lower, 80 to 81 °C
- CC1=NC(NC(=O)Nc2cccc(C)c2)C(=O)N(CC(=O)C2CCCC2)c2c(C)cccc21 (stereo not drawn) — higher, 150 to 156 °C
- CCCCCCCCCCCCCCC(CCC(=O)OCc1ccccc1)C(=O)O (stereo not drawn) — lower, 62 to 63 °C
- CC(C)(C)OC(=O)N1CC(COS(C)(=O)=O)c2c1cc(OCc1ccccc1)c1ncccc21 (stereo not drawn) — higher, 156 to 157 °C
- CC1C=C2C(=CC=CC23NC(=O)NC3=O)O1 (stereo not drawn) — higher, 234 to 236 °C
- CN(C)C(=O)c1cccc2c1nc(-c1c(F)cccc1F)n2Cc1c(F)cccc1F — higher, 213 to 214 °C
- N=C(N)c1ccc(N2CC(CN3CCN(CCC(=O)O)CC3)OC2=O)cc1 (stereo not drawn) — higher, 269 °C
- Clc1ncnc2c1ncn2C1CC=CC1 — lower, 56 to 58 °C
